Reference: US3932668A, “Composition for treating swine scour” (priority 1971, dated 1976)
Converted amounts (≈) assume the structure as drawn. “Also recorded” adds a separate entry of the source. Where a name gives a salt, the structure may show the parent alone.

Tests used:
[1] = tested on: El-tor vibrio; experiment: Antimicrobial spectrum, minimum inhibition concentration; format: cell-based
[2] = tested on: mice; experiment: Toxicity (LD50) against mice; format: in vivo; conditions: intraperitoneal administration
Excerpt: (§1) As is well known, LD50, or the median lethal dose, is the dose which is fatal to 50% of the test animals, and the larger the LD50 is, the lower the toxicity of the test material is.

[3] = Toxicity (LD50) against mice; format: in vivo; conditions: mouse, in vivo
Excerpt: as §1

[4] = Absorption, residue and cross resistance as agent for swine scours
[5] = tested on: Escherichia coli 0-139; experiment: Antimicrobial spectrum, minimum inhibition concentration; format: cell-based; conditions: 0139
[6] = tested on: Candida albicans Totuka; experiment: as above; format: cell-based
[7] = tested on: Cryptococcus neoformans 301; experiment: as above; format: cell-based
[8] = tested on: Staphylococcus aureus 209-p; experiment: as above; format: cell-based
[9] = Absorption, residue and cross resistance as feed additive (poultry)
[10] = tested on: Escherichia coli 0-135; experiment: Antimicrobial spectrum, minimum inhibition concentration; format: cell-based; conditions: 0135
[11] = tested on: Escherichia coli 0-20; experiment: as above; format: cell-based; conditions: 020
[12] = tested on: Streptococcus haemolyticus cook; experiment: as above; format: cell-based
[13] = tested on: Escherichia coli 0-16; experiment: as above; format: cell-based; conditions: 016
[14] = tested on: Escherichia coli 0-142; experiment: as above; format: cell-based; conditions: 0142
[15] = tested on: Salmonella typhi O-901-W; experiment: as above; format: cell-based; conditions: Salmonella enterica
[16] = tested on: Escherichia coli 0-78; experiment: as above; format: cell-based; conditions: 078
[17] = Growth (increased body weights) of starting chicks raised on mixed feed for 10 weeks; format: in vivo; conditions: for Weight Increase Index: non-added group = 100.0
Excerpt: An amount of 2,3,3-triiodo-allyl-methyl ether as shown in Table 3 was uniformly mixed into one ton of a poultry compound feed. The 2,3,3-triiodo-allyl-methyl ether had been premixed with 100 times its weight of defatted rice bran. Using this mixed feed, 20 starting chicks were raised for 10 weeks.

[18] = tested on: Tricophyton asteroides; experiment: Antimicrobial spectrum, minimum inhibition concentration; format: cell-based
[19] = Field clinical test to treat the scours of pigs; format: in vivo; parameters: key to Severity of Conditions, 4th day / Severity of Conditions, 5th day: +++: watery feces; ++: muddy feces; +: soft feces; --: normal feces
Method: In use, 2,3,3-triiodo-allyl-methyl ether in crystal form is formed into a fine powder, and either coated with gelatin to a content of about 10% of the ether powder or diluted 10-fold with lactose. It is used in an amount of about 10 mg or more per kilogram of the body weight of the swine in one dosage, and may be increased according to the case. Usually, it is administered twice on the first day, and thereafter, once a day for 3 to 4 days. By this method of treatment, the disease is generally cured in about 5 days.
2,3,3-triiodo-allyl-methyl ether was finely divided in a mortar, and then diluted 10-fold with lactose. A field clinical test was performed using this formulation to treat the scours of 41 pigs. The formulation was administered orally twice on the first day and once a day for the next 3 to 4 days. In this table, the symbols +++, ++, + and -- have the following meanings: […]

[20] = tested on: Escherichia coli 0-83; experiment: Antimicrobial spectrum, minimum inhibition concentration; format: cell-based; conditions: 083
[21] = tested on: Aspergillus fumigatus Saito; experiment: as above; format: cell-based
[22] = Comparative experiment: effect of kanamycin sulfate against scours of swine (control); format: in vivo; parameters: key to Severity of Conditions, 1st day / Severity of Conditions, 2nd day / Severity of Conditions, 3rd day / Severity of Conditions, 4th day / Severity of Conditions, 5th day: +++: watery feces; ++: muddy feces; +: soft feces; --: normal feces; conditions: individual swine (one table line each), single dosage 60-150 mg/Kg
Excerpt: Effect of Kanamycin Sulfate against Scours of […]

[23] = chicks, inferred from body weight at great quantities
[24] = individual pigs (one table line each), oral, single dosage 35-200 mg/Kg, diluted 10-fold with lactose
[25] = chicks, comparative antibiotic, 20 g

Structure (SMILES): COCC(I)=C(I)I [2,3,3-triiodo-allyl-methyl ether, methyl-2,3,3-triiodoallylether]
- MIC [1]: 3.12 µg/mL (≈ 6.94 µM)
- LD50 [2]: 50 to 100 mg/kg
- LD50 ([3]; ip, intraperitoneal administration): 50 to 100 mg/kg
- LD50 ([3]; oral administration): > 1000 mg/kg
- selectivity ratio ([3]; times or more as great, read-out: LD50 in oral administration relative to that in intraperitoneal administration): 10 to 20
- Cross resistance ([4]; agent for swine scours): does not have cross resistance
- Absorption by the digestive tract of swine ([4]; swine): hardly absorbed
- Build-up of residue ([4]; swine): does not cause a build-up of residue
- MIC [5]: 12.5 µg/mL (≈ 27.8 µM)
- MIC [6]: 3.12 µg/mL (≈ 6.94 µM)
- MIC [7]: 0.78 µg/mL (≈ 1.73 µM)
- MIC [8]: 6.25 µg/mL (≈ 13.9 µM)
- Cross resistance ([9]; feed additive for poultry): does not have cross resistance
- Absorption by the digestive tract of poultry ([9]; poultry): hardly absorbed
- Residue build-up ([9]; poultry): free from residue build-up
- MIC [10]: 3.12 µg/mL (≈ 6.94 µM)
- MIC [11]: 0.78 µg/mL (≈ 1.73 µM)
- MIC [12]: 12.5 µg/mL (≈ 27.8 µM)
- MIC [13]: 6.25 µg/mL (≈ 13.9 µM)
- MIC [14]: 6.25 µg/mL (≈ 13.9 µM)
- MIC [15]: 3.12 µg/mL (≈ 6.94 µM)
- MIC [16]: 3.12 µg/mL (≈ 6.94 µM)
- Body weight after 10 weeks compared with the group not given the additive ([17]; all groups fed the additive): showed an increase in body weight after 10 weeks
- Body weight, 2nd week ([17]; chicks, 1 g/ton of feed): 120.4
- Body weight, 4th week ([17]; chicks, 1 g/ton of feed): 357.4
- Body weight, 6th week ([17]; chicks, 1 g/ton of feed): 682.4
- Body weight, 8th week ([17]; chicks, 1 g/ton of feed): 1084.4
- Body weight, 10th week ([17]; chicks, 1 g/ton of feed): 1329.7
- Weight Increase Index ([17]; chicks, 1 g/ton of feed): 109.9
- Body weight, 2nd week ([17]; chicks, 5 g/ton of feed): 125.9
- Body weight, 4th week ([17]; chicks, 5 g/ton of feed): 362.1
- Body weight, 6th week ([17]; chicks, 5 g/ton of feed): 706.2
- Body weight, 8th week ([17]; chicks, 5 g/ton of feed): 1099.3
- Body weight, 10th week ([17]; chicks, 5 g/ton of feed): 1408.4
- Weight Increase Index ([17]; chicks, 5 g/ton of feed): 116.4
- Body weight, 2nd week ([17]; chicks, 10 g/ton of feed): 147.6
- Body weight, 4th week ([17]; chicks, 10 g/ton of feed): 388.0
- Body weight, 6th week ([17]; chicks, 10 g/ton of feed): 764.0
- Body weight, 8th week ([17]; chicks, 10 g/ton of feed): 1150.7
- Body weight, 10th week ([17]; chicks, 10 g/ton of feed): 1512.1
- Weight Increase Index ([17]; chicks, 10 g/ton of feed): 125.0
- Body weight, 2nd week ([17]; chicks, 20 g/ton of feed): 120.4
- Body weight, 4th week ([17]; chicks, 20 g/ton of feed): 350.2
- Body weight, 6th week ([17]; chicks, 20 g/ton of feed): 647.3
- Body weight, 8th week ([17]; chicks, 20 g/ton of feed): 990.7
- Body weight, 10th week ([17]; chicks, 20 g/ton of feed): 1303.1
- Weight Increase Index ([17]; chicks, 20 g/ton of feed): 109.7
- Body weight, 2nd week ([17]; chicks, 50 g/ton of feed): 124.3
- Body weight, 4th week ([17]; chicks, 50 g/ton of feed): 359.4
- Body weight, 6th week ([17]; chicks, 50 g/ton of feed): 671.3
- Body weight, 8th week ([17]; chicks, 50 g/ton of feed): 1030.5
- Body weight, 10th week ([17]; chicks, 50 g/ton of feed): 1382.2
- Weight Increase Index ([17]; chicks, 50 g/ton of feed): 114.3
- Body weight, 2nd week ([17]; chicks, 100 g/ton of feed): 128.2
- Body weight, 4th week ([17]; chicks, 100 g/ton of feed): 349.8
- Body weight, 6th week ([17]; chicks, 100 g/ton of feed): 663.1
- Body weight, 8th week ([17]; chicks, 100 g/ton of feed): 946.7
- Body weight, 10th week ([17]; chicks, 100 g/ton of feed): 1223.7
- Weight Increase Index ([17]; chicks, 100 g/ton of feed): 101.2
- Body weight, 2nd week ([17]; chicks, 200 g/ton of feed): 106.5
- Body weight, 4th week ([17]; chicks, 200 g/ton of feed): 343.2
- Body weight, 6th week ([17]; chicks, 200 g/ton of feed): 686.3
- Body weight, 8th week ([17]; chicks, 200 g/ton of feed): 1039.6
- Body weight, 10th week ([17]; chicks, 200 g/ton of feed): 1298.3
- Weight Increase Index ([17]; chicks, 200 g/ton of feed): 107.3
- Effect of great quantities on body weight ([17]; chicks, addition of great quantities): did not cause a decrease in body weight
- Absorption by the digestive tract [17, 23]: little absorbed
- Side-effects [17, 23]: does not have side-effects
- MIC [18]: 1.56 µg/mL (≈ 3.47 µM)
- Effect against the diarrhea of swine ([19]; Table 4, comparison with kanamycin sulfate): superior effect
- Severity of Conditions, 4th day [19, 24]: -- and + and ++
- Severity of Conditions, 5th day [19, 24]: --
- Time in which the disease is generally cured ([19]; swine scours, about 10 mg or more per kg, twice first day, then once a day for 3 to 4 days): about 5 days
- MIC [20]: 12.5 µg/mL (≈ 27.8 µM)
- MIC [21]: 3.12 µg/mL (≈ 6.94 µM)

Structure (SMILES): NC[C@H]1O[C@H](O[C@H]2[C@H](O)[C@@H](O[C@H]3O[C@H](CO)[C@@H](O)[C@H](N)[C@H]3O)[C@H](N)C[C@@H]2N)[C@H](O)[C@@H](O)[C@@H]1O [Kanamycin Sulfate]
- Evaluation [22]: Cured; also recorded: Deaths
- Severity of Conditions, 1st day [22]: ++ and + and +++
- Severity of Conditions, 2nd day [22]: ++ and + and -- and +++
- Severity of Conditions, 3rd day [22]: + and ++ and --
- Severity of Conditions, 4th day [22]: -- and + and ++
- Severity of Conditions, 5th day [22]: -- and + and ++

Structure (SMILES): CC1(C)S[C@@H]2[C@H](NC(=O)Cc3ccccc3)C(=O)N2[C@H]1C(=O)O [Procaine Pencillin G]
- Body weight, 2nd week [17, 25]: 127.3
- Body weight, 4th week [17, 25]: 374.6
- Body weight, 6th week [17, 25]: 664.2
- Body weight, 8th week [17, 25]: 1012.9
- Body weight, 10th week [17, 25]: 1324.0
- Weight Increase Index [17, 25]: 109.5
